Earlier results in publication PMC2109944 (The Journal of Cell Biology, 1977).

Tests used:
[1] = system: dissociated anterior pituitary cells
mouse melanoma cells = conditions: binding at low temperature, no prefixation
human fibroblasts = conditions: 125I-epidermal growth factor

Substance: luteinizing hormone-releasing hormone [LHRH]
- time to LH release by exocytosis after stimulation [1]: ≤ 1 min
- desensitization after short-term exposure ([1]; short-term exposure): refractory to further stimulation by the peptide

Substance: a-MSH
- initial distribution of MSH receptor sites (mouse melanoma cells): initially distributed at one pole of the cell over the Golgi area

Substance: epidermal growth factor: 125I-labelled epidermal growth factor, literature comparison
- internalization of hormone-bearing receptors (human fibroblasts): internalized within hours of the binding taking place
